Patent publication US5736523A, “Antineoplastic heteronapthoquinones” (Biochem Pharma Inc., priority 1995, dated 1998)
Counter-ions that a name gives are not always drawn.

system: SKVLB (Ovarian; multidrug resistant); test: In vitro cytotoxicity, microculture tetrazolium (MTT) assay, SKVLB; assay type: cell-based, human; details: Homo sapiens, SKVLB, multidrug resistant; read-out: IC50
Procedure: In Vitro Cytotoxicity--Microculture Tetrazolium Assay
The microculture tetrazolium assay was used to test in vitro cytotoxicity. This assay is described in Plumb, J. A. et al., 1989 Cancer Research 49, 4435-4440, which is herein incorporated by reference. The cytotoxicity of compounds towards tumor cells is measured in vitro using the assay. This assay method is based upon the ability of live, but not dead cells to reduce the yellow water soluble dye 3-(4;5-dimethylthiazol-2-yl)-2,5-diphenyltetrazolium bromide (MTT) to its water insoluble purple formazan product.
Human Tumor Cell lines, used were:
SKVLB (Ovarian; multidrug resistant)--Dr. V. Ling, Ontario
The cells were maintained in exponential growth in culture in minimal essential media (MEM) supplemented with non-essential amino acids, and containing 15% (v/v) fetal bovine serum, 5 mM L-glutamine, 1 mM sodium pyruvate, and 0.1 U/ml insulin. All cell lines were grown at 37° C. in an atmosphere of 5% CO2 in air.
Test compounds: 20 mM in DMSO and diluted to a final concentration of 200 μM in culture medium before use.
The following is the generic description of the assay method. It should be noted that although the conditions described work well with the cells listed above, the initial plating density and the MTT concentration used should be verified for each new cell line used to test compounds.
For each assay, doxorubicin is included as an inter-assay standard. This allows us to monitor the behaviour of the assay in general, and in particular, to check that the SKVLB line has maintained its resistant phenotype.
The plate layout is done in the following manner: The assays are carried out in 96-well (8 well×12 well) microtiter plates. Serial dilutions of the compound are tested along the length of the plate. A 1:3 serial dilution of compound in culture medium covers a concentration range from 100 μM to 1.7 nM. Each concentration of compound is tested in quadruplet, allowing two compounds to be tested per plate. Wells containing no cells (blank) and cells with no test compound (control) are included on each plate.
Cells are plated out in 100 μl of culture medium in the microtiter plates at a density of around 1,500-4,000 cells per well. The plates are incubated overnight to allow the cells to become adherent after which the test compound is added (100 μl of appropriate dilution per well). The cells are incubated with test compound at 37° C. for 48 h after which the compound is replaced with fresh medium. After a further 48 h incubation at 37° C., 50 μl of MTT solution (2 mg/ml) is added to each well. The plates are incubated in the dark for 4 h at 37° C. after which the medium is removed. The MTT formazan product is extracted from the cells by the addition of 200 μl DMSO followed by 50 μl of Sorensen's buffer. The plates are shaken briefly and the absorbance at 570 nm is read using a Molecular Devices UV max plate reader. Curves are fit to the MTT assay data using a four parameter logistic equation, and the data are normalized to fit a 0% to 100% survival scale.

Compound | IC50
CO[C@H]1O[C@H](C(=O)Nc2ccccc2)CC2=C1C(=O)c1ccccc1C2=O (relative stereo) [BCH2041, (1,3-trans)-1-methoxy-3-N-anilinylcarbonyl-5,10-dioxo-3,4,5,10-tetrahydro-1H-naphtho-[2,3-c]-pyran] | 10 µM

same assay, conditions: SKVLB cell line

Compound | multidrug resistance / effectiveness in multidrug resistant cell line
COC1OC(C(=O)NCCCN(C)C)=CC2=C1C(=O)c1ccccc1C2=O (centres unmarked) [BCH2051, 1-Methoxy-5,10-dioxo-5,10-dihydro-1H-naphtho[2,3-c]pyran-3-[N-(3-dimethylamino-propyl)carboxamide] hydrochloride monohydrate] | significantly avoiding multidrug resistance

same assay, conditions: in vitro

Compound | in vitro antitumor potency
COC1OC(C(=O)NCCCN(C)C)=CC2=C1C(=O)c1ccccc1C2=O (centres unmarked) [BCH2051, 1-Methoxy-5,10-dioxo-5,10-dihydro-1H-naphtho[2,3-c]pyran-3-[N-(3-dimethylamino-propyl)carboxamide] hydrochloride monohydrate] | intense in vitro antitumor potency

same assay, conditions: ratio SKVLB / SKOV3

Compound | VLB/OV3
CC(=O)[C@H]1CC2=C(C(=O)c3ccccc3C2=O)[C@H](O[C@@H]2O[C@@H](C)[C@@H](O)[C@@H](O)[C@H]2I)O1 [BCH2014, (1'S,1S,3R)-methyl-(1-[2',6'-dideoxy-3',4'-dihydroxy-2'-iodo-L-lyxohexopyranose]-5,10-dioxo-3,4,5,10-tetrahydronaphtho [2,3-c]-pyran-3-yl)-ketone] | 1.85
CC[C@H]1CO[C@H](O[C@H]2C[C@H](NC(=O)C(F)(F)F)[C@H](O)[C@H](C)O2)C2=C1C(=O)c1ccccc1C2=O [BCH2091, (1'S,1R,4R)-5,10-dioxo-4-ethyl-1-(2',3',6'-trideoxy-3'-trifluoroacetamido-L-lyxohexopyranose)-3,4,5,10-tetrahydro-1H-naphtho-[2,3-c] pyran] | 3
COC(=O)[C@]1(C)CC2=C(C(=O)c3ccccc3C2=O)[C@H](O[C@H]2C[C@H](NC(=O)C(F)(F)F)[C@H](O)[C@H](C)O2)O1 [BCH2081, (1'S,1S,3S)-1-(3'-trifluoroacetamido-2',3',6'-trideoxylyxohexopyranose)-3-methoxycarbonyl-3-methyl-5,10-dioxo-4,5,10-trihydro-1H-naphtho-[2,3-c]-pyran] | 15
CC(=O)[C@@H]1CC2=C(C(=O)c3ccccc3C2=O)[C@@H](O[C@H]2C[C@H](NC(=O)C(F)(F)F)[C@H](O)[C@H](C)O2)S1 [BCH2037, (1'S,1S,3S)-1-(3'-trifluoroacetamido-2',3',6'-trideoxy-L-lyxohexopyranose)-5,10-dioxo-3,4,5,10-tetrahydro-1H-naphtho-[2,3-c]-thiopyran] | 0.93-6.41
COC1OC(C(C)=O)=CC2=C1C(=O)c1ccccc1C2=O (centres unmarked) [BCH2129, 3-Aceto-5,10-dioxo-1-methoxy-5,10-dihydro-1H-naphtho-(2,3-c)-pyran] | 2.95
COC1OC(C(=O)NCCN2CCCC2)=CC2=C1C(=O)c1ccccc1C2=O.Cl (centres unmarked) [BCH2839, 1-methoxy-3-[2-(N-pyrrolidinyl)ethylaminocarbonyl]-5,10-dioxo-5,10-dihydro-1H-naphtho-[2,3-c]-pyran hydrochloride salt] | 6.14-9.98
CC(=O)C1CC2=C(C(=O)c3ccccc3C2=O)C(O[C@H]2C[C@H](NC(=O)C(F)(F)F)[C@H](OS(C)(=O)=O)[C@H](C)O2)O1 (mixture of isomers) [BCH2095, (1'-S,1-S,3-R) and (1'-S,1-R,3-S)-methyl-(1-[2',3',4',6' tetradeoxy-3'-trifluoroacetamido-4'-O-methane-sulfonyl-L-lyxohexopyranose)-5,10-dioxo-3,4,5,10 tetrahydronaphtho-[2,3-c]pyran-3-yl) ketone] | 8.16
CC(C)[C@@H]1CC2=C(C(=O)c3ccccc3C2=O)[C@@H](O[C@H]2C[C@H](NC(=O)C(F)(F)F)[C@H](O)[C@H](C)O2)O1 [BCH2053, (1'S,1R,3S)-5,10-dioxo-3-isopropyl-1-(2',3',6'-trideoxy-3'-trifluoroacetamido-L-lyxohexopyranose)-3,4,5,10-tetrahydro-1H-naphtho-[2,3-c]-pyran] | 4.48
CC(=O)O[C@H]1[C@@H](I)[C@H](O[C@@H]2O[C@@H](C(C)=O)CC3=C2C(=O)c2ccccc2C3=O)O[C@@H](C)[C@H]1OC(C)=O [BCH1667, (1'S,1S,3R)-methyl-(1-[2',6'-dideoxy-3',4'-diacetoxy-2'-iodo-L-lyxohexopyranose]-5,10-dioxo-3,4,5,10-tetrahydronaphtho [2,3-c]-pyran-3-yl) ketone] | 7.32
CC(=O)[C@@H]1CC2=C(C(=O)c3ccccc3C2=O)[C@@H](O[C@@H]2O[C@@H](C)[C@@H](O)[C@@H](NC(=O)C(F)(F)F)C2I)O1 (stereo partly drawn) [BCH2023, (1'S,1R,3S)-methyl-(1-[2',3',6'-trideoxy-2'-iodo-3'-trifluoroacetamido-4'-hydroxy-L-lyxohexopyranose]-5,10-dioxo-3,4,5,10-tetrahydronaphtho-[2,3-c]-pyran-3-yl) ketone] | 4.39
CC(=O)[C@@]1(C)CC2=C(C(=O)c3ccccc3C2=O)[C@H](O[C@H]2C[C@H](NC(=O)C(F)(F)F)[C@H](O)[C@H](C)O2)O1 [BCH2082, (1'S,1S,3R)-1-(3'-trifluoroacetamido-2',3',6-trideoxy-L-lyxohexopyranose)-3-acetyl-3-methyl-5,10-dioxo-4,5,10-trihydro-1H-naphtho-[2,3-c]-pyran] | 3
CC(=O)[C@]1(C)CC2=C(C(=O)c3ccccc3C2=O)[C@H](O[C@H]2C[C@H](NC(=O)C(F)(F)F)[C@H](O)[C@H](C)O2)O1 [BCH2090, (1'S,1S,3S)-1-(3'-trifluoroacetamido-2',3',6'-trideoxy-L-lyxohexopyranose)-3-acetyl-3-methyl-5,10-dioxo-4,5,10-trihydro-1H-naphtho-[2,3-c]-pyran] | 3.29
CO[C@H]1O[C@H](C(=O)Nc2ccccc2)CC2=C1C(=O)c1ccccc1C2=O (relative stereo) [BCH2041, (1,3-trans)-1-methoxy-3-N-anilinylcarbonyl-5,10-dioxo-3,4,5,10-tetrahydro-1H-naphtho-[2,3-c]-pyran] | 5
COC(=O)[C@]1(C)CC2=C(C(=O)c3ccccc3C2=O)[C@@H](O[C@H]2C[C@H](NC(=O)C(F)(F)F)[C@H](O)[C@H](C)O2)O1 [BCH2077, (1'S,1R,3S)-1-(3'-trifluoroacetamido-2',3',6'-trideoxy-L-lyxohexopyranose)-3-methoxycarbonyl-3-methyl-3,4,5,10-tetrahydro-5,10-dioxo-1H-naphtho-[2,3-c] pyran] | 11
COC(=O)C1=CC2=C(C(=O)c3ccccc3C2=O)C(OC)O1 (centres unmarked) [BCH2160, 1-methoxy-3-methoxy carbonyl-5,10-dioxo-5,10-dihydro-1H-naphtho-[2,3-c]-pyran] | 1.85
COCC1(COC)CC2=C(C(=O)c3ccccc3C2=O)[C@H](O[C@H]2C[C@H](NC(=O)C(F)(F)F)[C@H](O)[C@H](C)O2)O1 [BCH1697] | 3.57
CC(=O)[C@H]1CC2=C(C(=O)c3ccc(O)cc3C2=O)[C@H](O[C@H]2C[C@H](NC(=O)C(F)(F)F)[C@H](O)[C@H](C)O2)O1 [BCH1180, (1'S,1S,3R)-Methyl (5,10-dioxo-1-(2',3',6'-trideoxy-3'-trifluoroacetamido-L-lyxohexopyranose)-7-hydroxy-3,4,5,10-tetrahydro [2,3-C]pyran-3-yl) ketone] | 10.20
CC(=O)[C@H]1CC2=C(C(=O)c3ccccc3C2=O)[C@H](O[C@@H]2O[C@@H](C)[C@@H](O)[C@@H](NC(=O)C(F)(F)F)C2I)O1 (stereo partly drawn) [BCH2022, (1'S,1S,3R)-methyl-(1-[2',3',6'-trideoxy-2'-iodo-3'-trifluoroacetamido-4'-hydroxy-L-lyxohexopyranose]-5,10-dioxo-3,4,5,10-tetrahydronaphtho-[2,3-c]-pyran-3-yl) ketone] | 4.23
COC(=O)[C@@]1(C)CC2=C(C(=O)c3ccccc3C2=O)[C@H](O[C@H]2C[C@H](NC(=O)C(F)(F)F)[C@H](O)[C@H](C)O2)O1 [BCH2076, (1'S,1S,3R)-1-(3'-trifluoroacetamido-2',3',6'-trideoxy-lyxo-L-hexopyranose)-3-methoxycarbonyl-3-methyl-3,4,5,10-tetrahydro-5,10-dioxonaphtho-[2,3-c] pyran] | 9
CC(=O)[C@@H]1CC2=C(C(=O)c3ccc(O)cc3C2=O)[C@@H](O[C@H]2C[C@H](NC(=O)C(F)(F)F)[C@H](O)[C@H](C)O2)O1 [BCH1181, (1'S,1R,3S)-Methyl (5,10-dioxo-1-(2',3',6'-trideoxy-3'-trifluoroacetamido-L-lyxohexopyranose)-7-hydroxy-3,4,5,10-tetrahydro [2,3-C]pyran-3-yl) ketone] | 3.75
